One data set concerns Plutella xylostella. The experiment in a line: whole plant or invertebrate. The format is in vivo. As for the experimental part:
(§1) After an air drying process, second instar larvae were released thereto. […] The test was performed in duplicate.
(§2) Method for Judging Synergistic Effects

Another data set concerns Aphis gossypii. The data set can be described thus: whole plant or invertebrate. In kind it is in vivo. As for the experimental part:
The test was performed in duplicate.
as §2

For the next data set, the system named is Spodoptera litura. The experiment in a line: whole plant or invertebrate. The format is in vivo. As for the experimental part: After an air drying process, third instar larvae were released thereto. […] The test was performed in duplicate.
as §2

The subject of the next data set is rice blast. The format is in vivo. The following applies: single agent 0.5 ppm; foliar application; fourteen days after inoculation.
A further data set deals with Rhizoctonia solani. The experiment in a line: Test Example 12 Test of control of rice sheath blight (Rhizoctonia solani). The settings on record: single agent 5 ppm; foliar spray; six days after inoculation. The format is in vivo.
In another data set the test system is Laodelphax striatellus. The data set can be described thus: Test Example 14 Test with Laodelphax striatellus by soil irrigation treatment (mixture with paddy herbicide). The following applies: single agent 0.05 mg/seedling, five days after release. The format is in vivo. The procedure: After standing for three days, second instar larvae were released thereto. […] The test was performed in duplicate.

Data set [1] concerns Laodelphax striatella. The experiment in a line: whole plant or invertebrate. The following applies: for Theoretical value by Colby's equation: Laodelphax striatella soil irrigation, single agent 0.5 mg/Seedling (other component 0); for Mortality of single agent against Laodelphax striatella: single agent 0.5 mg/Seedling. The procedure:
After the rice seedling was left to stand for 3 days, second instar larvae were released thereto. Thereafter, the larvae were left to stand in a thermostatic chamber (16 hours of light period-8 hours of dark period) at 25° C. […] The test was performed in duplicate. Mortality of larvae (%)={number of dead larvae/(number of survived larvae+number of dead larvae)}×100
B: 100−(mortality of larvae or adults when treated only with each of imidacloprid, fipronil, chlorantraniliprole, spinosad, clothianidin, dinotefuran, sulfoxaflor, pymetrozine, thiamethoxam, flupyradifurone and cycloxaprid))
as §2
When the mortality against Laodelphax striatella in the case of a mixture with another agent exceeded the theoretical value by the Colby's equation, a synergistic effect was judged to be present.

The test system of a further data set is Chilo suppressalis. The format is in vivo. The settings on record: for Mortality of single agent against Chilo suppressalis: soil irrigation, six days after release. The procedure:
After standing for 3 days, second instar larvae were released thereto. […] The test was performed in duplicate.
as §2

Data set [2] deals with Frankliniella occidentalis. The data set can be described thus: whole plant or invertebrate. As for the experimental part: After an air drying process, first instar larvae were released thereto. Thereafter, the larvae were left to stand in a thermostatic chamber (16 hours of light period-8 hours of dark period) at 25° C. […] The test was performed in duplicate. Mortality of larvae (%)={number of dead larvae/(number of survived larvae+number of dead larvae)}×100
(A: 100−(mortality of larvae or adults when treated only with Compound P212)
B: 100−(mortality of larvae or adults when treated with only the insecticide imidacloprid, dinotefuran, or acetamiprid))
as §2
When the mortality against Frankliniella occidentalis in the case of a mixture with another agent exceeded the theoretical value given by Colby's equation, a synergistic effect was judged to be present.

Data set [3] relates to Laodelphax striatella. The data set can be described thus: whole plant or invertebrate. The format is in vivo. The procedure:
as §1, §2

Data set [4] has as its system Haemaphysalis longicornis. The experiment in a line: whole plant or invertebrate. The format is in vivo. The procedure:
A capsule with a diameter of 2 cm and a height of 2 cm was attached to the dorsal surface of a mouse. A compound of Formula (I), ivermectin, moxidectin, permethrin, amitraz, fipronil, spinetram and the mixture of the compound of Formula (I) and each insecticide were dissolved in ethanol at the concentrations given in […], and each of these was dripped onto the surface of a mouse body within a capsule. After thorough drying, eight Haemaphysalis longicornis nymphs were released and the top of the capsule was sealed with a lid. The mouse was kept in a cage at 25° C. using a 12-hour light period and a 12-hour dark period. Five days after the release, the capsule was removed and the number of surviving and dead nymphs and the number of engorged individuals were counted and the insect mortality and agonal rate was calculated by the following equation. Insect mortality and agonal rate (%)={number of dead and agonal insects/(number of survived insects+number of dead and agonal insects)}×100

For a further data set, the system named is Naranga aenescens. The format is in vivo. The procedure:
After standing for 3 days, first instar larvae were released thereto. […] The test was performed in duplicate.
as §2

Where [5] appears, read: single agent 5 ppm, cabbage leaf disk spray, three days.
Where [6] appears, read: single agent 10 ppm, cabbage leaf disk spray, three days.
Setting [7] is: Laodelphax striatellus, foliar, 72 h, read-out: Mortality of single agent against Laodelphax striatella.

Like-named read-outs stand apart in the source and are kept apart here.

On to `C[C@]1(COC(=O)C2CC2)[C@@H]2C[C@H](O)[C@@]3(C)Oc4cc(-c5cccnc5)oc(=O)c4[C@H](O)[C@@H]3[C@@]2(C)CC[C@@H]1OC(=O)C1CC1` [Afidopyropen], for which the “Theoretical value by Colby's equation” value in the data set on Plutella xylostella (Plutella xylostella, single agent 5 ppm (other component 0)) is 0%; with Plutella xylostella (Plutella xylostella, single agent 10 ppm (other component 0)), 20%; in the data set on Aphis gossypii (Aphis gossypii, single agent 0.002 ppm (other component 0)), 25%; in the data set on Spodoptera litura (Spodoptera litura, single agent 5 ppm (other component 0)), 0%; with Spodoptera litura (Spodoptera litura, single agent 10 ppm (other component 0)), 0%. Besides, the “Mortality of single agent against Plutella xylostella” value with Plutella xylostella (setting [5]) is 0%; in the data set with Plutella xylostella (setting [6]), 20%. The “Mortality of single agent against Aphis gossypii” value in the data set on Aphis gossypii (single agent 0.002 ppm, cucumber leaf disk spray, three days) was 25%. Besides, the “Mortality of single agent against Spodoptera litura” value in the data set with Spodoptera litura (setting [5]) and in the data set on Spodoptera litura (setting [6]) was 0% in each case.

On to `CO/C=C(/C(=O)OC)c1ccccc1Oc1cc(Oc2ccccc2C#N)ncn1` [Azoxystrobin], for which the “Preventive value (Rice blast test, number of lesions)” value with rice blast turned out to be 37. Also, in the data set on Rhizoctonia solani, the “Preventive value (Sheath blight test, lesion height)” value was determined as 95.

Regarding `CCN(CC)C(=O)n1cnc(S(=O)(=O)c2c(C)cc(C)cc2C)n1` [Cafenstrole], the “Mortality of larvae (Laodelphax striatellus)” value (“Mortality of larvae” below) in the data set with Laodelphax striatellus came out at 0%.

For the compound `CNC(=O)c1cc(Cl)cc(C)c1NC(=O)c1cc(Br)nn1-c1ncccc1Cl` [Chlorantraniliprole], the mortality at 0.05 mg/seedling with Laodelphax striatella [1] (Laodelphax striatellus, soil, 72 h, read-out: Mortality of single agent against Laodelphax striatella, single agent 0.05 mg/Seedling, soil irrigation) was 9%. Moreover, the “Theoretical value by Colby's equation” value in the data set on Plutella xylostella (0.002 ppm) was found to be 60%; with Spodoptera litura (0.02 ppm), 20%. For the same compound, in the data set with Plutella xylostella (Plutella xylostella, foliar, 72 h, read-out: Mortality of single agent against Plutella xylostella, single agent 0.002 ppm, cabbage leaf disk spray, three days), the mortality at 0.002 ppm stood at 60%. The mortality at 0.02 ppm in the data set on Spodoptera litura (Spodoptera litura, foliar, 72 h, read-out: Mortality of single agent against Spodoptera litura, single agent 0.02 ppm, cabbage leaf disk spray, three days) was 20%. In addition, the “Mortality of single agent against Chilo suppressalis” value in the data set on Chilo suppressalis (single agent 0.0005 mg/seedling) was 60%.

For `CNC(=O)c1cc(C#N)cc(C)c1NC(=O)c1cc(Br)nn1-c1ncccc1Cl` [Cyantraniliprole], the “Mortality of single agent against Chilo suppressalis” value with Chilo suppressalis (single agent 0.005 mg/seedling) is given as 83%.

In the case of `CCCCOC(=O)[C@@H](C)Oc1ccc(Oc2ccc(C#N)cc2F)cc1` [Cyhalofop-butyl], the “Mortality of larvae” value in the data set with Laodelphax striatellus is 0%.

`Cc1ccc(NC(=O)NC(C)(C)c2ccccc2)cc1` [Daimuron]: in the data set with Laodelphax striatellus, the “Mortality of larvae” value came out at 0%.

Take `C[C@@H](NC(=O)C(C#N)C(C)(C)C)c1ccc(Cl)cc1Cl` (stereo partly drawn) [Diclocymet]: in the data set with rice blast, the “Preventive value (Rice blast test, number of lesions)” value is 8.

For `CN/C(=N/CC1CCOC1)N[N+](=O)[O-]` (stereo not drawn) [Dinotefuran], the mortality at 0.005 mg/seedling in the data set with Laodelphax striatella [1] (Laodelphax striatellus, soil, 72 h, read-out: Mortality of single agent against Laodelphax striatella, single agent 0.005 mg/Seedling, soil irrigation) amounted to 0%. The “Theoretical value by Colby's equation” value in data set [2] (5 ppm) is 35%. Moreover, in data set [2] (Frankliniella occidentalis, foliar, 72 h, read-out: Mortality of single agent against Frankliniella occidentalis), the mortality at 5 ppm was determined as 35%.

On to `CCOc1ccc(C(C)(C)COCc2cccc(Oc3ccccc3)c2)cc1` [Etofenprox], for which the mortality at 10 ppm with Laodelphax striatella [3] (setting [7]) was 30%. The “Theoretical value by Colby's equation” value with Laodelphax striatella [3] (foliar, 10 ppm) was determined as 30%.

`Cc1nn(C)c(Cl)c1C(=O)Nc1cccc2c1C(C)OC2(C)C` (stereo not drawn) [Furametpyr]: the “Preventive value (Sheath blight test, lesion height)” value in the data set with Rhizoctonia solani is reported as 77.

Consider `N#Cc1ccccc1NC(=O)c1snc(Cl)c1Cl` [Isotianil], for which the “Theoretical value by Colby's equation” value in the data set with Laodelphax striatella [1] is reported as 5%. The “Mortality of single agent against Laodelphax striatella” value with Laodelphax striatella [1] (soil irrigation) is 5%. The “Preventive value (Rice blast test, number of lesions)” value in the data set on rice blast is 66.

Consider `C[C@H]1O[C@H](O[C@H]2[C@H](O)[C@@H](O)[C@@H](O)[C@H](O)[C@@H]2O)[C@@H](N)C[C@@H]1NC(=N)C(=O)O` [Kasugamycin], for which the “Preventive value (Rice blast test, number of lesions)” value with rice blast was 0.

For `CNC(=O)/C(=N/OC)c1ccccc1CO/N=C(C)/C(=N/OC)C(/C)=N/OC` [Orysastrobin], the “Theoretical value by Colby's equation” value in the data set on Laodelphax striatella [1] was found to be 4%. Further, the “Mortality of single agent against Laodelphax striatella” value with Laodelphax striatella [1] (soil irrigation) amounted to 4%. In addition, the “Preventive value (Rice blast test, number of lesions)” value in the data set on rice blast amounted to 20. In the data set with Rhizoctonia solani, the “Preventive value (Sheath blight test, lesion height)” value came to 72.

Consider `O=C(Nc1ccccc1)N(Cc1ccc(Cl)cc1)C1CCCC1` [Pencycuron], for which the “Preventive value (Sheath blight test, lesion height)” value with Rhizoctonia solani turned out to be 69.

With `CCOc1ccc([Si](C)(C)CCCc2ccc(F)c(Oc3ccccc3)c2)cc1` [Silafluofen], in the data set on Laodelphax striatella [3] (Laodelphax striatella foliar, single agent 5 ppm (other component 0)), the “Mortality of single agent” value turned out to be 55%. In the data set on Laodelphax striatella [3] (setting [7]), the mortality at 5 ppm was determined as 55%.

For the compound `C[Si](C)(C)CC(O)(Cn1cncn1)c1ccc(F)cc1` (stereo not drawn) [Simeconazole], the “Preventive value (Sheath blight test, lesion height)” value in the data set on Rhizoctonia solani was determined as 5.

Turning to `CC(=O)Oc1c(C)c(C)nc2c(F)cc(C(C)(C)C)cc12` [Tebufloquin], the “Preventive value (Rice blast test, number of lesions)” value with rice blast was 48.

`Cc1nc(C(F)(F)F)c(C(=O)Nc2c(Br)cc(OC(F)(F)F)cc2Br)s1` [Thifluzamide]: in the data set on Rhizoctonia solani, the “Preventive value (Sheath blight test, lesion height)” value is 92.

Take `Cc1ccc(NC(=O)c2snnc2C)cc1Cl` [Tiadinil]: the mortality at 0.5 mg/seedling in the data set with Laodelphax striatella [1] (Laodelphax striatellus, soil, 72 h, read-out: Mortality of single agent against Laodelphax striatella, single agent 0.5 mg/Seedling, soil irrigation) turned out to be 8%. In the data set with rice blast, the “Preventive value (Rice blast test, number of lesions)” value is given as 0.

For `Cc1cccc2sc3nncn3c12` [Tricyclazole], the “Preventive value (Rice blast test, number of lesions)” value in the data set with rice blast was determined as 72.

For the compound `OCC1=C[C@H](N[C@H]2C[C@H](CO)[C@@H](O[C@@H]3O[C@H](CO)[C@@H](O)[C@H](O)[C@H]3O)[C@H](O)[C@H]2O)[C@H](O)[C@@H](O)[C@@H]1O` [Validamycin], the “Preventive value (Sheath blight test, lesion height)” value in the data set with Rhizoctonia solani worked out at 32.

As for `CC(COc1ccc(Oc2ccccc2)cc1)Oc1ccccn1` (stereo not drawn) [pyriproxyfen], the mortality at 47.5 ng in data set [4] (Haemaphysalis longicornis, topical, 120 h, read-out: Mortality of single agent against Haemaphysalis longicornis, single agent 0.0475 μg, capsule on mouse, five days, mortality and agonal rate) came to 2%.

Take Spinosad: the “Theoretical value by Colby's equation” value came out at 0% in the data set with Laodelphax striatella [1]; 11% in the data set on Plutella xylostella (Plutella xylostella, single agent 0.01 ppm (other component 0)); 80% with Chilo suppressalis (Chilo suppressalis, single agent 0.002 mg/seedling (other component 0)); 40% with Naranga aenescens (Naranga aenescens, single agent 0.005 mg/seedling (other component 0)). The “Mortality of single agent against Laodelphax striatella” value in the data set on Laodelphax striatella [1] (soil irrigation) was determined as 0%. The “Mortality of single agent against Plutella xylostella” value in the data set with Plutella xylostella (single agent 0.01 ppm, cabbage leaf disk spray, three days) is given as 11%. Also, the “Mortality of single agent against Chilo suppressalis” value in the data set on Chilo suppressalis (single agent 0.002 mg/seedling) was determined as 80%. Further, the “Mortality of single agent against Naranga aenescens” value with Naranga aenescens (single agent 0.005 mg/seedling, soil irrigation, five days after release) came out at 40%.

As for spinetoram, the “Theoretical value by Colby's equation” value in data set [4] (Haemaphysalis longicornis, single agent 0.38 μg (other component 0)) stood at 6%. Also, the “Mortality of single agent against Haemaphysalis longicornis” value in data set [4] (single agent 0.38 μg, capsule on mouse, five days, mortality and agonal rate) is recorded as 6%.

Regarding spinosad, the “Theoretical value by Colby's equation” value in data set [4] (Haemaphysalis longicornis, single agent 1.9 μg (other component 0)) is 2.5%. For the same compound, the “Mortality of single agent against Haemaphysalis longicornis” value in data set [4] (single agent 1.9 μg, capsule on mouse, five days, mortality and agonal rate) was found to be 2.5%.

The values are drawn from patent publication US11771086B2, “Pest control composition including novel iminopyridine derivative” (priority 2012, dated 2023).
